These results are taken from patent US9630977B2, “Cephalosporin derivatives and pharmaceutical compositions thereof” (Legochem Biosciences, Inc., priority 2011, dated 2017).

SMILES strings stand for the structures. Converted amounts (≈) assume the structure as drawn. Like-named read-outs stand apart in the source and are kept apart here.

What all share (assay): In vitro antibacterial activity test (broth microdilution)
Type in all cases: cell-based
(In general: In broth dilution the organism is exposed to a series of concentrations in liquid medium.)

One assay has as its system K. pneumoniae β14. As to conditions: Klebsiella pneumoniae. As to the method: (§1) To evaluate antibacterial activity of each of the compounds of Examples 1 to 68, in vitro antibacterial activity test was performed.
(§2) The in vitro antibacterial activity was evaluated by measuring MIC90 (ug/mL) of each of the compounds of Examples 1 to 68, which is defined as the lowest concentration of an antibiotic that will inhibit the visible growth of 90% of microorganisms after incubation as compared with a control group to which the antibiotic is not treated. MIC90 values were measured by the broth microdilution method developed by the Clinical and Laboratory Standards Institute (CLSI) (see CLSI M7-A5, Methods for Dilution Antimicrobial Susceptibility Test for Bacteria that Grow Aerobically-Fifth Edition (2000): CLSI, Villanova, Pa.).
(§3) In vitro antibacterial activity was measured with respect to the following 19 clinical isolates: M. catarrhalis; P. aeruginosa (5 strains); K. pneumoniae (6 strains); A. baumannii (3 strains); E. coli (2 strains); A. calcoaceticus; and E. cloacae.
(§4) Test compounds each (the cephalosporin derivative compounds prepared in Examples 1 to 68) were dissolved in DMSO at the concentration of 10,240 ug/mL, were diluted by two fold with DMSO, and then were diluted by twenty fold with sterilized distilled water. The final concentration in the antibacterial activity test was in the range of […] to 128 ug/mL, and the final concentration of DMSO used as an adjuvant was 2.5% (V/V).

The test system of another assay is P. aeruginosa 40. How it is done:
as §1, §2, §3, §4

The test system of a further assay is P. aeruginosa 1912E. As to conditions: Pseudomonas aeruginosa, 1912E. As to the method: as §1, §2, §3, §4
The test system of a further assay is A. baumannii 49. How it is done: as §1, §2, §3, §4
For a further assay, the system named is E. coli β4. Particulars: Escherichia coli. How it is done:
as §1, §2, §3, §4

In assay [1] the test system is A. calcoaceticus ATCC15473. As to conditions: Acinetobacter calcoaceticus. How it is done: as §1, §2, §3, §4
For a further assay, the system named is P. aeruginosa 37. As to conditions: Pseudomonas aeruginosa, 37, P. aeruginosa 37. How it is done: as §1, §2, §3, §4
The test system of a further assay is A. baumannii 52. As to conditions: Acinetobacter baumannii. How it is done:
as §1, §2, §3, §4

A further assay concerns K. pneumoniae 2011E. Particulars: Klebsiella pneumoniae, 2011E. As to the method: as §1, §2, §3, §4
Another assay concerns P. aeruginosa 6065Y. As to conditions: Pseudomonas aeruginosa. As to the method: as §1, §2, §3, §4
The next assay has as its system E. coli AG100. Particulars: Escherichia coli. How it is done:
as §1, §2, §3, §4

Another assay relates to E. cloacae β19. As to conditions: Enterobacter cloacae. How it is done:
as §1, §2, §3, §4

For another assay, the system named is P. aeruginosa 43. As to conditions: Pseudomonas aeruginosa; P. aeruginosa 43; read-out: MIC90. As to the method:
as §1, §2, §3, §4

For another assay, the system named is A. baumannii 46. How it is done: as §1, §2, §3, §4
Setting [2] is: Pseudomonas aeruginosa, 40, P. aeruginosa 40, read-out: MIC90.
Where [3] appears, read: Acinetobacter baumannii, A. baumannii 49, read-out: MIC90.
The mark [4] stands for this setting: A. calcoaceticus ATCC15473, read-out: MIC90.
Where [5] appears, read: A. baumannii 52, read-out: MIC90.
[6] abbreviates: K. pneumoniae 2011E, read-out: MIC90.
[7] abbreviates: AG100, E. coli AG100, read-out: MIC90.
The mark [8] stands for this setting: Acinetobacter baumannii, A. baumannii 46, read-out: MIC90.

One may read the MIC90 as the lowest concentration that inhibits either 90% of growth or 90% of the strains tested, depending on the study. Take `CN(CCNc1c[n+](CC2=C(C(=O)[O-])N3C(=O)[C@@H](NC(=O)/C(=N\OC(C)(C)C(=O)O)c4csc(N)n4)C3SC2)cnc1N)Cc1ccc(O)c(O)c1` (stereo partly shown) [Compound 29]: the MIC90 in the assay on K. pneumoniae β14 (read-out: MIC90) is 16 µg/mL (≈ 21.1 µM); with P. aeruginosa 40 (setting [2]), 4 µg/mL (≈ 5.29 µM); in the assay on P. aeruginosa 1912E (read-out: MIC90) it was 2 µg/mL (≈ 2.64 µM); in the assay with A. baumannii 49 (setting [3]) it was 32 µg/mL (≈ 42.3 µM); in the assay on E. coli β4 (read-out: MIC90), 2 µg/mL (≈ 2.64 µM); in assay [1] (setting [4]) it was 4 µg/mL (≈ 5.29 µM). Also, the MIC90 with P. aeruginosa 37 (read-out: MIC90) was 2 µg/mL (≈ 2.64 µM); in the assay with A. baumannii 52 (setting [5]) it was 32 µg/mL (≈ 42.3 µM); in the assay on K. pneumoniae 2011E (setting [6]), 8 µg/mL (≈ 10.6 µM); with P. aeruginosa 6065Y (read-out: MIC90), 8 µg/mL (≈ 10.6 µM); with E. coli AG100 (setting [7]), 2 µg/mL (≈ 2.64 µM); in the assay with E. cloacae β19 (read-out: MIC90), 8 µg/mL (≈ 10.6 µM). Also, the MIC90 in the assay on P. aeruginosa 43 was 4 µg/mL (≈ 5.29 µM); in the assay with A. baumannii 46 (setting [8]), 8 µg/mL (≈ 10.6 µM).
For the compound `CC(C)(O/N=C(\C(=O)N[C@@H]1C(=O)N2C(C(=O)[O-])=C(C[n+]3cnc(N)c(NCCNC(=O)c4ccc(O)c(O)c4)c3)CSC12)c1csc(N)n1)C(=O)O` (stereo partly shown) [Compound 30], the MIC90 is 16 µg/mL (≈ 21.1 µM) in the assay with K. pneumoniae β14 (read-out: MIC90); 0.5 µg/mL (≈ 0.661 µM) in the assay with P. aeruginosa 40 (setting [2]); 1 µg/mL (≈ 1.32 µM) in the assay with P. aeruginosa 1912E (read-out: MIC90); > 128 µg/mL in the assay on A. baumannii 49 (setting [3]); 2 µg/mL (≈ 2.64 µM) in the assay on E. coli β4 (read-out: MIC90); 1 µg/mL (≈ 1.32 µM) in assay [1] (setting [4]). Also, the MIC90 was 2 µg/mL (≈ 2.64 µM) in the assay with P. aeruginosa 37 (read-out: MIC90); 128 µg/mL (≈ 169 µM) with A. baumannii 52 (setting [5]); 0.5 µg/mL (≈ 0.661 µM) in the assay with K. pneumoniae 2011E (setting [6]); 0.5 µg/mL (≈ 0.661 µM) with P. aeruginosa 6065Y (read-out: MIC90); 0.125 µg/mL (≈ 0.165 µM) in the assay on E. coli AG100 (setting [7]); 4 µg/mL (≈ 5.29 µM) with E. cloacae β19 (read-out: MIC90). The MIC90 in the assay on P. aeruginosa 43 came to 0.5 µg/mL (≈ 0.661 µM); with A. baumannii 46 (setting [8]) it was 1 µg/mL (≈ 1.32 µM).
On to `CC(C)(O/N=C(\C(=O)N[C@@H]1C(=O)N2C(C(=O)[O-])=C(C[n+]3cnc(N)c(N)c3)CSC12)c1csc(N)n1)C(=O)O` (stereo partly shown) [Compound 36], for which the MIC90 is 16 µg/mL (≈ 27.7 µM) in the assay on K. pneumoniae β14 (read-out: MIC90); 16 µg/mL (≈ 27.7 µM) in the assay on P. aeruginosa 40 (setting [2]); 8 µg/mL (≈ 13.9 µM) in the assay on P. aeruginosa 1912E (read-out: MIC90); > 128 µg/mL in the assay on A. baumannii 49 (setting [3]); 16 µg/mL (≈ 27.7 µM) with E. coli β4 (read-out: MIC90); 2 µg/mL (≈ 3.46 µM) in [1] (setting [4]). In addition, the MIC90 was > 128 µg/mL in the assay on P. aeruginosa 37 (read-out: MIC90); > 128 µg/mL in the assay on A. baumannii 52 (setting [5]); 0.5 µg/mL (≈ 0.866 µM) in the assay on K. pneumoniae 2011E (setting [6]); 64 µg/mL (≈ 111 µM) with P. aeruginosa 6065Y (read-out: MIC90); 0.5 µg/mL (≈ 0.866 µM) in the assay with E. coli AG100 (setting [7]); > 128 µg/mL in the assay with E. cloacae β19 (read-out: MIC90). The MIC90 in the assay with A. baumannii 46 (setting [8]) stood at 64 µg/mL (≈ 111 µM).
For the compound `CC(C)(O/N=C(\C(=O)N[C@@H]1C(=O)N2C(C(=O)[O-])=C(C[n+]3cnc(N)c(NCCN)c3)CSC12)c1csc(N)n1)C(=O)O` (stereo partly shown) [Compound 37], the MIC90 against K. pneumoniae β14 is 16 µg/mL (≈ 25.8 µM); in the assay on P. aeruginosa 40 (Pseudomonas aeruginosa, 40), 4 µg/mL (≈ 6.44 µM); in the assay on P. aeruginosa 1912E it was 4 µg/mL (≈ 6.44 µM); against A. baumannii 49 (Acinetobacter baumannii, 49, A. baumannii 49) it was 128 µg/mL (≈ 206 µM); in the assay with E. coli β4, 4 µg/mL (≈ 6.44 µM); in assay [1] (ATCC15473, A. calcoaceticus ATCC15473) it was 1 µg/mL (≈ 1.61 µM). Further, the MIC90 amounted to 16 µg/mL (≈ 25.8 µM) in the assay with P. aeruginosa 37; 64 µg/mL (≈ 103 µM) in the assay on A. baumannii 52 (52); 8 µg/mL (≈ 12.9 µM) against K. pneumoniae 2011E; 8 µg/mL (≈ 12.9 µM) against P. aeruginosa 6065Y (6065Y); 4 µg/mL (≈ 6.44 µM) with E. coli AG100 (AG100); 16 µg/mL (≈ 25.8 µM) against E. cloacae β19. This compound had an MIC90 with A. baumannii 46 (Acinetobacter baumannii, 46, A. baumannii 46) of 4 µg/mL (≈ 6.44 µM).
`CC(C)(O/N=C(\C(=O)N[C@@H]1C(=O)N2C(C(=O)[O-])=C(C[n+]3cnc(N)c(NCCCC(=O)O)c3)CSC12)c1csc(N)n1)C(=O)O` (stereo partly shown) [Compound 38]: the MIC90 with K. pneumoniae β14 (read-out: MIC90) is 64 µg/mL (≈ 96.4 µM); with P. aeruginosa 40 (setting [2]), 64 µg/mL (≈ 96.4 µM); with P. aeruginosa 1912E (read-out: MIC90) it was 32 µg/mL (≈ 48.2 µM); with A. baumannii 49 (setting [3]) it was > 128 µg/mL; in the assay on E. coli β4 (read-out: MIC90), 16 µg/mL (≈ 24.1 µM); in assay [1] (setting [4]), 16 µg/mL (≈ 24.1 µM). Also, the MIC90 with P. aeruginosa 37 (read-out: MIC90) is > 128 µg/mL; in the assay with A. baumannii 52 (setting [5]) it was > 128 µg/mL; with K. pneumoniae 2011E (setting [6]) it was 4 µg/mL (≈ 6.03 µM); in the assay on P. aeruginosa 6065Y (read-out: MIC90) it was 128 µg/mL (≈ 193 µM); in the assay with E. coli AG100 (setting [7]), 8 µg/mL (≈ 12.1 µM); in the assay with E. cloacae β19 (read-out: MIC90), > 128 µg/mL. For the same compound, the MIC90 in the assay with A. baumannii 46 (setting [8]) worked out at 128 µg/mL (≈ 193 µM).
